Laboratory results taken from patent US20130253037A1, “AURORA A KINASE EFFECTORS” (PURDUE RESEARCH FOUNDATION, priority 2010, published 2013).
Changes are numbered by the printed parent chain. pIC50: −log10 of the molar value. “Also recorded” adds a separate entry of the source. One block for each molecule: values may come before it.

Legend:
[1] = molecular target: T1, AA-as7 kinase (Aurora A LI85V, L201G) (Mus musculus, UniProt P97477, L185V/L201G); test: In vitro kinase assay with AA-as7 and TPX2; format: biochemical, murine
T1 construct: the Aurora A mutant is the double mutant Aurora A (AA-as7); 6-His; made in house; host or cells: Sf9 insect cells (baculovirus, Bac-to-Bac)
T1 sequence (P97477 1-395 L185V/L201G): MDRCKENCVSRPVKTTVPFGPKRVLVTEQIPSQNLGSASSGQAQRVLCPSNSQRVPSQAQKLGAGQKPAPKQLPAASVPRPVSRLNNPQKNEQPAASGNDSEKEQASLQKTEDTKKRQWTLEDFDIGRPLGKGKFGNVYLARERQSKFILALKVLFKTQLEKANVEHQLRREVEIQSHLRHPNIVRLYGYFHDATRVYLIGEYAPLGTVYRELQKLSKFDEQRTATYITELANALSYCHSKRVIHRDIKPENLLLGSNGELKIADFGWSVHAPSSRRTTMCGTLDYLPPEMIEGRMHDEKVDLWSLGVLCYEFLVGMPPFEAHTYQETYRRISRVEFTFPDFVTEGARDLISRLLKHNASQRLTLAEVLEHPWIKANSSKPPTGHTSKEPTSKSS
Procedure: (§1) For in vitro labeling, Aurora A/TPX2 complex (on beads) was pre-incubated with 10 μM cold ATP for 10 min to activate the kinase. The beads were washed twice with kinase buffer, and then subjected to kinase assay with 2-5 μg of recombinant protein (such as PHLDA) and 1 μCi of [γ-^32P] ATP. Reactions were terminated by adding SDS sample buffer, separated by SDS-PAGE gel, transferred to PVDF membrane and exposed to Biomax MS film. Aurora A kinase assays were conducted using 1 μCi of [γ-^32P] ATP and 3 μg of Aurora A substrate peptide in a final volume of 30 μl at 30° C. as reported before (Sun, et al, (2008a) Mol. Biol. Cell 19, 3052-3069).
(§2) IC50 values were determined by fitting the data to a sigmoidal dose response curve using GraphPad Prism 4.0 software. Km and Vmax values were derived from the assay described above using various concentrations of AA peptide substrate and ATP. Km and Vmax values were determined using GraphPad Prism 4.0 software.

wild-type Aurora A = molecular target: T2, wild-type Aurora A (Mus musculus, UniProt P97477); test: In vitro kinase assay with wild-type Aurora A and TPX2; format: biochemical, murine
T2 construct: 6-His; made in house; host or cells: Sf9 insect cells (baculovirus, Bac-to-Bac)
T2 sequence (P97477 1-395): T1 sequence (P97477 1-395 L185V/L201G) with V185L, G201L
T2 sequence (Q9ULW0 1-747 partner): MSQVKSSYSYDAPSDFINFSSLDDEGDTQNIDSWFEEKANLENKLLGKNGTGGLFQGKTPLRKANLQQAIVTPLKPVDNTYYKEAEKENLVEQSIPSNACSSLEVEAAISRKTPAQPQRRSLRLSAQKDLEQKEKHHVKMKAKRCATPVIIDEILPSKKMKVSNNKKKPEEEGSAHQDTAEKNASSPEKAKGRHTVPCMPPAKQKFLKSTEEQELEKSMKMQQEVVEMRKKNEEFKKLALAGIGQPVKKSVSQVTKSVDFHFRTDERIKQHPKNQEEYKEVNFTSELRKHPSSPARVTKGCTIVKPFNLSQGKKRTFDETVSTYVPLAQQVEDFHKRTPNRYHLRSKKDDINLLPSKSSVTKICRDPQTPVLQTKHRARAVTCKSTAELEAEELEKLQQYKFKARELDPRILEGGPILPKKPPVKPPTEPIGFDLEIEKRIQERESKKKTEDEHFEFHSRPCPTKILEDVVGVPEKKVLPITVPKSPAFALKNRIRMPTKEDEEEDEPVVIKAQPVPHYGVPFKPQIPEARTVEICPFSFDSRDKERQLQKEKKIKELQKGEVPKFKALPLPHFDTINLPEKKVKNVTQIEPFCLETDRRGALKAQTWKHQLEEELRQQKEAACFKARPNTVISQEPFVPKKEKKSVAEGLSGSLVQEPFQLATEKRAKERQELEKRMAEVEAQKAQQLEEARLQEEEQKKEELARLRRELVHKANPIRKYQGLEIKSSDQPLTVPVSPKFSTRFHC
Procedure: as §1, §2

[2] = molecular target: Aurora B-as7 (L138V, L154G-AB) kinase (Homo sapiens, UniProt Q96GD4, L138V/L154G); test: In vitro kinase assay with AB-as7; format: biochemical; conditions: phosphodonor as labelled
Sequence of Aurora B-as7 (L138V, L154G-AB) kinase (Q96GD4 whole entry L138V/L154G): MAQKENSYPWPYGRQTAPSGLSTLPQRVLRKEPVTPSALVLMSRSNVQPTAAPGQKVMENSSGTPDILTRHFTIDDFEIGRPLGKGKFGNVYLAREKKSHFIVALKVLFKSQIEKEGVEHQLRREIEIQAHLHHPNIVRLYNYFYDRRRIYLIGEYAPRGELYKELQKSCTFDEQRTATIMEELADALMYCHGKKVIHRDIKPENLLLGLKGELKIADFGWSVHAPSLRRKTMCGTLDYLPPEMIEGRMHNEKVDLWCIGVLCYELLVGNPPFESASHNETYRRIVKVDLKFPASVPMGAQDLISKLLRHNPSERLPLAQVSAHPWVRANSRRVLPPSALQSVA

wild-type Aurora B = wild-type Aurora B (Homo sapiens, UniProt Q96GD4); test: In vitro kinase assay with wild-type Aurora B; format: biochemical
Sequence of wild-type Aurora B (Q96GD4 whole entry): as the sequence (Q96GD4 whole entry L138V/L154G) above, with V138L, G154L counted along it

MDA cells = test: Western blot of LIMK2 and Aurora A levels after MLN8237, MDA cells; format: cell-based
Procedure: FIG. 11A-11F Aurora A and LIMK2 positive feedback loop is a common feature in several cancers. […] PC3 cells were transfected with scrambled shRNA (lane 1) or Aurora A-shRNA2 (lane 2) and Aurora A and LIMK2 levels analyzed after 30 h. […] FIG. 11C is a western blot showing that Aurora A ablation in HCT116 and PaCa2 cells depletes LIMK2. HCT116 and PaCa2 cells were transfected with scrambled shRNA (lanes 1 and 3) or Aurora A-shRNA2 (lanes 2 and 4) and Aurora A and LIMK2 levels analyzed. […] FIG. 11E is a western blot showing that LIMK2 acts as a pharmacodynamic biomarker for Aurora A kinase activity. Aurora A was inhibited using 0.5 μM MLN8237 in MDA cells and Aurora A, LIMK2 and actin levels analyzed. […] MDA cells were incubated with MLN8237 (0.5 μM and 1 μM) or the vehicle (DMSO). After 48 h, cells were analyzed using MTT assay. p*<0.05, when compared to the control.
(§3) AA-MDA and AA-as7 MDA cells were treated with either DMSO or 1-NM-PP1 (250 nM) for 12 h, followed by cell lysis. For MLN8237 experiment, MDA cells were treated with 1 μM MLN8237 for 12 h.
(§4) Cells were harvested and lysed in modified RIPA buffer, supplemented with protease inhibitors. Equal amounts of cell extracts were then used to conduct western blot.
Over a dozen Aurora A targeted drugs are in clinical trials. […] Aurora A was inhibited using MLN8237 and LIMK2 levels analyzed.

[3] = system: HA-tagged LIMK2 in MDA cells; test: Gel shift / Western blot of HA-tagged LIMK2 and mutants in MDA cells after MLN8237; format: cell-based; conditions: additional 12 h
Procedure: FIGS. 8A-8D. Aurora A phosphorylates LIMK2 at 5283, T494 and T505 which increases its protein stability. […] 6-His-tagged wild type, (S283A) LIMK2, (T494A) LIMK2 and (T505A) LIMK2 mutants were phosphorylated using Aurora A/TPX2 and [^32P] ATP for 15 min and the products were separate by electrophoresis. […] Nucleic acids sequence encoding HA-tagged (S283A) LIMK2, (T494A) LIMK2, and (T505A) LIMK2 were transfected in MDA cells. After 30 h, cells were incubated with 0.5 μM MLN8237 for additional 16 h. Gel shift assay was performed using 10% SDS PAGE. Protein levels were analyzed using HA and actin antibodies. FIG. 8C is a western blot showing Aurora A promotes LIMK2 stability by phosphorylating S283, T494 and T505. Nucleic acids sequences encoding HA-tagged wt LIMK2, (S283A, T494A) LIMK2 (2A) and (S283A, T494A, T505A) LIMK2 (3A) were transfected in MDA cells. After 30 h, protein levels were analyzed using Aurora A, HA and actin antibodies. […] Wild type, double (2A) and triple (3A) mutants of LIMK2 were transfected in MDA cells along with 6-His Ubiquitin and LIMK2 ubiquitination analyzed.
Aurora A inhibits LIMK2 degradation by directly phosphorylating it at Ser283, Thr494 and Thr505: Since Aurora A regulates LIMK2 by phosphorylation (FIG. 6A), we set to identify Aurora A-mediated phosphorylation sites on LIMK2. Aurora A preferentially phosphorylates R/K/N-R-X-S/T-B, where B denotes any hydrophobic residue except Pro (Ferrari et al. (2005) Biochem. J. 390, 293-302). […] S283A, T494A and T505A LIMK2 alleles were generated and their phosphorylation analyzed in vitro. Aurora A phosphorylates LIMK2 at all these sites (FIG. 8A). […]
To confirm these findings, HA-tagged LIMK2 double mutant (S283A, T494A) and HAtagged LIMK2 triple mutant (S283A, T494A, T505A) were generated and transfected in MDA cells. […] After 24 h, Aurora A was inhibited using MLN8237 for an additional 12 h, and LIMK2 levels analyzed using HA antibody.

AA-as7-NIH3T3 cells = test: Soft agar colony formation, AA-as7-NIH3T3 cells; format: cell-based; conditions: 0.5 μM
Procedure: (§5) Briefly equal volumes of nobel agar (1%, DNA grade) and 2×RPMI 1640 (with 20% FBS) were mixed at 40° C. to make 0.5% agar in six-well tissue culture plates (Corning) as a base agar. Cells (0.1 ml of 2.0×10^5/ml) were suspended in 3 mL of 2×RPMI 1640 (with 20% FBS) and 3 ml of 0.7% agar. 1.5 ml of this suspension was added to each well (as 0.35% top agar) with final concentration of 5,000 cells per well. Top agar was covered with 500 μl of culture media. Plates were incubated at 37° C. for 3 to 4 weeks. Fresh media was added every three days.
(§6) For 1-NM-PPI experiments, fresh media containing 1-NM-PP1 (100 nM) or DMSO were added to the cells every 3 days. Colony formation was observed by light phase-contrast microscope and visually after staining with 0.5 ml of 0.01% crystal violet in PBS for 45 min at room temperature. Experiments were repeated in quadruplicate, two independent times to ensure the reproducibility of the results.

[4] = system: wild-type Aurora A-expressing NIH3T3 cells; test: Soft agar colony formation, wild-type Aurora A-NIH3T3 cells; format: cell-based; conditions: 0.5 μM (identical conditions)
Procedure: as §5, §6

AA-as7-MDA cells = test: Western blot of protein levels after 1-NM-PP1, AA-as7-MDA cells; format: cell-based; conditions: for Aurora A levels: AA-as7-MDA cells treated with inhibitor
Procedure: Aurora A can regulate its substrates using either its kinase activity or scaffolding function. Therefore, to dissect the mechanism further, AA-MDA and AA-as7-MDA were treated with 1-NM-PP1 for 12 h and PHLDA1 expression analyzed.
as §3, §4
Aurora A-mediated phosphorylation of its substrates often promotes their degradation (e.g. p53, PHLDA1) or stabilization (ASAP1). Therefore, we investigated whether Aurora A exerts control over LIMK2 level. Aurora A was transiently depleted in MDA cells using two different shRNAs, causing concomitant decrease in LIMK2 level (FIG. 6A). Wild-type and mutant AA (AA-as7) were stably overexpressed in MDA cells (AA-MDA and AA-as7-MDA cells respectively), leading to considerable increase in LIMK2 levels (FIG. 6B), thereby confirming that Aurora A positively regulates LIMK2 levels. Aurora A can regulate its substrates using either its kinase activity or scaffolding function. Aurora A regulates p53 levels by phosphorylation, but regulates ASAP levels through the scaffolding function. Therefore, to dissect the mechanism by which Aurora A regulates LIMK2, AA-MDA and AA-as7-MDA cells were treated with 1-NM-PP 1 for 12 h and LIMK2 expression analyzed.

[5] = AA-as7, phosphodonor as labelled

Kcat [1, 5]: 54.2 s⁻¹
Km [1, 5]: 17.7 µM
Vmax [1, 5]: 7.31 × 10^5
Kcat (wild-type Aurora A; wild-type Aurora A): 31.3 s⁻¹
Km (wild-type Aurora A; wild-type Aurora A): 16.2 µM
Vmax (wild-type Aurora A; wild-type Aurora A): 4.24 × 10^5
Kcat [2]: 2.75 s⁻¹
Km [2]: 30.4 µM
Vmax [2]: 3.30 × 10^4
Kcat (wild-type Aurora B): 4.27 s⁻¹
Km (wild-type Aurora B): 23 µM
Vmax (wild-type Aurora B): 5.12 × 10^4
Compound: Nc1ncnc2c1ncn2[C@@H]1O[C@H](COP(=O)(O)OP(=O)(O)OP(=O)(O)O)[C@@H](O)[C@H]1O [ATP]

Compound: COc1cc(Nc2ncc3c(n2)-c2ccc(Cl)cc2C(c2c(F)cccc2OC)=NC3)ccc1C(=O)O [MLN8237]
Aurora A levels (MDA cells): reduced
LIMK2 levels (MDA cells): depleted LIMK2 levels; also recorded: reduced
phospho-levels and protein levels of wt LIMK2 and (S283A, T494A) LIMK2 [3]: decreased
phosphorylation level (top band) and overall protein level of LIMK2 single mutants (S283A, T494A, T505A) [3]: decreased
protein and phospho-levels of LIMK2 triple mutant (S283A, T494A, T505A) [3]: remained unchanged

pIC50 ([1]; AA-as7 kinase): 8.77
inhibition of wild-type Aurora A (wild-type Aurora A; even at higher concentrations): does not inhibit
Compound: CC(C)(C)n1nc(Cc2cccc3ccccc23)c2c(N)ncnc21 [1-NM-PP1]
colony formation in soft agar (AA-as7-NIH3T3 cells): completely inhibited colony formation
colony formation in soft agar [4]: robust colony formation
LIMK2 level (AA-as7-MDA cells; 250 nM, 12 h, AA-as7-MDA cells): significant decrease; also recorded: reduces LIMK2 levels
PHLDA1 level (AA-as7-MDA cells; 12 h, AA-as7-MDA cells): increased
Aurora A levels (AA-as7-MDA cells): reduces Aurora A levels significantly
Aurora A levels (AA-as7-MDA cells; listed as 1-NM-PP 1): decreased Aurora A levels; also recorded: lower Aurora A levels
